# According to patent US12702671B2, “Calcineurin inhibitors of the setron family for the treatment of hearing loss” (SENSORION, priority 2015, dated 2026):
# Counter-ions that a name gives are not always drawn.
# Experiments:
# [1] = system: calcineurin; experiment: Calcineurin phosphatase activity in cerebellar granule neurons after 4 DIV (malachite green colorimetric assay, Test A); assay type: cell-based, Wistar rat; details: for effect on calcineurin phosphatase activity: CGNs in K25 medium, 10, 100 or 1000 nM for 4 DIV, relative to K25 control (100%); for change of calcineurin inhibition with increasing concentration: CGNs, 4 DIV, 10-1000 nM
# Experimental: According to Test A, phosphatase calcineurin activity is assessed in cerebellar granule neurons (CGNs) using a colorimetric assay kit based on quantification of the green complex formed between malachite green, molybdate and free phosphate released. CGNs are detached from plates, for example by scraping, rinsed in ice-cold tris buffer solution (TBS) and counted. About 10 million cells are lysed in 1 ml of the provided lysis buffer and centrifuged at 150,000×g at 4° C. for 45 min, and the supernatant may be stored at −70° C. until analysis. Prior to calcineurin activity assay, free phosphate and nucleotides are removed from cellular extract by gel filtration. To ensure the complete removal of phosphate, malachite green reagent may be added, which will turn the color green in presence of phosphate. A specific calcineurin substrate is added to phosphate-free cellular extracts and after appropriate incubation period, malachite green reagent is applied. The rapid green color formation from the reaction is measured, for example on a spectrophotometer. The developed color is proportional to the calcineurin phosphatase activity of samples. Absorbance values, read at 620 nm, may thus be transformed to percentage calcineurin activity relative to K25 control treatment (100%). Cerebellar granule cells were dissociated from the cerebellae of 7-day-old Wistar rat pups as described (Kramer et al. 2003, Mol Cell Neurosci 23:325-330). Briefly, the cerebellae were removed, rinsed in HBSS-BSA, minced, digested with 0.025% trypsin and incubated at 37° C. for 15 min. To stop the digestion, DMEM containing 10% fetal calf serum was added; then a single cell suspension was obtained through pipetting up and down the sedimented tissue. Following centrifugation, cells were counted using trypan blue exclusion test in a Burker chamber. This method is based on the ability of viable cells to exclude trypan blue due to their intact cell membranes, leaving them unstained while nonviable cells take up the dye. Cells at 3.2×10^5/cm^2 were seeded in DMEM Hepes modification supplemented with 10% fetal calf serum, 100 μg/ml pyruvate, and 100 μg/ml gentamicin on Polystyrene 12-well tissue culture plates (CELLSTAR) coated with poly-L-lysine. After 24 h, 10 μM cytosine arabinofuranoside was added to inhibit the growth of non-neuronal cells. All pharmacological interventions begun at this time in the culture medium containing 25 mM KCl (K25), which caused depolarization of granule cells and consequently activated gene expression machinery. Moreover, the viability of granule neurons was higher in this milieu and therefore provides the possibility to maintain cells for several days. Indeed, 25 mM KCl is required in the medium for CGN cultures to maintain adequate calcineurin activity and cell maturation and depolarization (Kramer et al., 2003, Mol Cell Neurosci 23:325-330; Vallano et al. 2006, Neuropharmacology 50: 651-660). Cultures received simple medium (K25 control) or medium containing a setron compound in HCl salt form (Tocris Bioscience, Bristol, UK) at concentrations of 10 nM, 100 nM or 1000 nM for 4 days in vitro (DIV). Phosphatase calcineurin activity was assessed in CGNs using a colorimetric assay kit based on quantification of the green complex formed between malachite green, molybdate and free phosphate released. CGNs were detached from plates by scraping, rinsed in ice-cold tris buffer solution (TBS) and counted. About 10 million cells are lysed in 1 ml of the provided lysis buffer and centrifuged at 150,000×g at 4° C. for 45 min, and the supernatant was stored at −70° C. until analysis. Prior to calcineurin activity assay, free phosphate and nucleotides were removed from cellular extract by gel filtration. To ensure the complete removal of phosphate, malachite green reagent was added, which will turn the color green in presence of phosphate. […]
# [2] = system: acoustic trauma induced hearing loss; experiment: Auditory brainstem response (ABR) thresholds after acoustic trauma; assay type: in vivo, Wistar rats; details: for ABR threshold recovery from 24 h to day 14 compared to placebo / hearing outcomes (ABR thresholds and DPOAE amplitudes) at 14 days after acoustic trauma compared to placebo: i.p. daily for 14 days after acoustic trauma, same doses as E4; for ABR threshold shift from baseline to day 14 compared to placebo: i.p. daily for 14 days from immediately after 121 dB trauma, azasetron HCl 4.22, ondansetron HCl 4, tropisetron HCl 3.5, granisetron HCl 3.8, Tacrolimus 1.5 mg/kg
# Experimental: (§1) All experiments were performed using 7 week old male Wistar rats (CERJ, Le Genest, France) in accordance with the French Ministry of Agriculture regulations and European Community Council Directive no. 86/609/EEC, OJL 358. The rats were fed a standard diet ad libitum and maintained on a 12 h light-dark cycle.
# (§2) Auditory Brainstem Reponses (ABR) and Distortion Product Otoacoustic Emissions (DPOAE) were recording using a RZ6 Auditory Workstation (Tucker-Davis Technologies, Alachua, FL, USA) with animals deeply anesthetized using 90 mg/kg ketamine and 10 mg/kg xylazine and placed on a 35° C. recirculating heating pad inside a sound attenuating cubicle (Med Associates Inc., St. Albans, VT, USA) throughout the experiment.
# For ABR recordings, three stainless steel needle electrodes were placed subdermally over the vertex, the right mastoid and right hind leg of each animal. Tone-pips (5 msec duration presented at a rate of 21/s) at 8, 16 and 24 kHz were delivered to the right ear using a calibrated MF-1 speaker in closed-field configuration (Tucker-Davis Technologies, Alachua, FL, USA) at attenuating intensity until no reproducible response could be recorded. Close to the ABR threshold, the responses to 1000 acoustic stimuli in 5 dB steps were averaged. Responses were low-pass filtered at 3 kHz.
# (§3) Animals were exposed to 121 dB octave band noise (8-16 kHz) for 2 h in groups of 4 rats, placed in individual compartments of a custom built circular cage placed on a 30 cm diameter platform rotating at 3 turns/minute (Aqila Innovation, Valbonne, France). The calibrated octave band noise generated by the RZ6 SigGen software was further amplified by a Crown D-75 amplifier in bridge mode (Crown Audio, Elkhart, IN, USA) and delivered by four Beyma CP16 compression tweeters (Acustica Beyma S. L., Moncada, Valencia, Spain) positioned 39 cm above the rotating platform, each 10 cm from the platform center.
# (§4) Animals were treated by intraperitoneal injection daily for 14 days beginning immediately after acoustic trauma induction and subsequently repeated every 24 hours. The setron compounds granisetron HCl, ondansetron HCl, tropisetron HCl and azasetron HCl (Tocris Bioscience, Bristol, UK) were delivered dissolved in saline solution (1.6 mL/kg) while Tacrolimus (Selleck Chemicals, Houston, TX, USA) was dissolved in solution composed of 10% ethanol-100%/10% Kolliphor EL/1% Tween 80/79% saline (1.0 mL/kg). Placebo treated animals received injections of 1.6 mL/kg saline following the same treatment schedule.
# (§5) Statistical analysis was performed using two-way ANOVA (Audiometry data: frequency and treatment group. Cochleograms: normalized distance from apex and treatment group) followed by Holm-Sidak post-hoc test for multiple comparisons. Results are given as mean±SEM and a p value less than or equal to 0.05 considered significant.
# (§6) Baseline line audiometry (ABR and DPOAE measures) was performed for each animal 3 days before acoustic trauma was induced. Subsequently, audiometry measures were repeated 24 h and 14 days after acoustic trauma.
# (§7) To quantify and compare the difference in treatment effects between groups while taking into account individual baseline and trauma variability, the hearing loss (ABR threshold shift & DPOAE amplitude loss) at D14 relative to baseline, as well as the functional recovery of hearing from 24 h to D14 (ABR threshold shift & DPOAE amplitude loss) were determined for all treatment groups.
# [3] = system: acoustic trauma induced hearing loss; experiment: Distortion product otoacoustic emissions (DPOAE) amplitudes after acoustic trauma; assay type: in vivo, Wistar rats; details: for DPOAE amplitude loss from baseline to day 14 compared to placebo / recovery of DPOAE amplitudes from 24 h post trauma to day 14 compared to placebo: i.p. daily for 14 days after acoustic trauma, same doses as E4
# Experimental: as §1, §2
# DPOAEs were recorded and using ER10B+ Low Noise DPOAE microphone (Etymotic Research, Inc., Elk Grove Village, IL, USA) with acoustic stimuli delivered by two calibrated MF-1 speakers in closed-field configuration (Tucker-Davis Technologies, Alachua, FL, USA). DPOAEs were recorded at fixed stimulus levels (L1=L2=70 dB SPL), with an f2/f1 ratio of 1.2. Responses were recorded at 4, 8, 16, 24 and 32 kHz.
# as §3, §4, §5, §6, §7
# [4] = system: outer hair cells; experiment: Outer hair cell loss (cytocochleograms) in cochleae fixed at D14 after acoustic trauma; assay type: in vivo, Wistar rats; details: cochleae fixed after audiometry on day 14
# Experimental: as §3, §4
# After audiometry on day 14, animals were deeply anaesthetized with an intraperitoneal injection of pentobarbital (100 mg/kg). The cochleae were removed, fixed with 4% paraformaldehyde, pH 7.4, decalcified with 10% EDTA, pH 7.4 and then stained with myosin VIIa 1/1000. […] The mean loss of OHCs per group was subsequently calculated as a function of normalized distance from the apex in bins of 2.5% of the total length, using the total length of each histological specimen. Cell counts could reliably be obtained for up to 90% of the total distance from the apex (corresponding to the tonotopic region up to from 0 kHz to ~50 kHz in rat, Viberg & Canlon 2004), while the last 10% was too variable due to damage incurred during dissection.
# as §5
# To further support the conclusions from the functional audiometry data, the loss of outer hair cells in four treatment group was determined by constructing cytocochleograms from histological preparations of cochleae fixed after audiometry on day 14.
# [5] = system: noise-induced hearing loss; details: Uemaetomari et al. 2005; Bas et al. 2009; cited from earlier work
# [6] = day 14, i.p. daily for 14 days after acoustic trauma
compound,measurement,setting,value
CN1C2CCCC1CC(NC(=O)c1nn(C)c3ccccc13)C2 (centres unmarked) [granisetron HCl],effect on calcineurin phosphatase activity,[1],no effect
same,ABR threshold recovery from 24 h to day 14 compared to placebo,[2],decreased threshold recovery
same,hearing outcomes (ABR thresholds and DPOAE amplitudes) at 14 days after acoustic trauma compared to placebo,[2],worse ABR thresholds and DPOAE amplitudes
same,ABR threshold shift from baseline to day 14 compared to placebo,[2],strong trends towards higher ABR threshold shifts
same,DPOAE amplitude loss from baseline to day 14 compared to placebo,[3],trend towards increased DPOAE amplitude loss
same,recovery of DPOAE amplitudes from 24 h post trauma to day 14 compared to placebo,[3],reduced recovery
same,DPOAE amplitude loss from baseline to day 14 compared to placebo,[3]; listed as granisetron,trend towards worse DPOAE amplitudes
same,mean loss of outer hair cells compared to placebo,[4],Neither the granisetron HCl nor the tacrolimus treated groups were significantly different from placebo
same,mean loss of outer hair cells compared to placebo,[4]; listed as granisetron,trend towards worse
Cc1nccn1CC1CCc2c(c3ccccc3n2C)C1=O (centres unmarked) [ondansetron HCl],effect on calcineurin phosphatase activity,[1],significantly inhibited
same,change of calcineurin inhibition with increasing concentration,[1],decreased with increasing concentration
same,reduction of ABR threshold shifts compared to placebo treatment,[2]; [6],10-30%
same,hearing outcomes (ABR thresholds and DPOAE amplitudes) at 14 days after acoustic trauma compared to placebo,[2],improvement at some frequencies
same,ABR threshold shift from baseline to day 14 compared to placebo,[2],lower ABR threshold shift
same,reduction of DPOAE amplitudes loss compared to placebo treatment,[3]; [6],10-30%
same,DPOAE amplitude loss from baseline to day 14 compared to placebo,[3],trend towards reduced loss of DPOAE amplitude
same,recovery of DPOAE amplitudes from 24 h post trauma to day 14 compared to placebo,[3],improved recovery
Cn1cc(C(=O)[C@@H]2CCc3nc[nH]c3C2)c2ccccc21 [ramosetron HCl],effect on calcineurin phosphatase activity,[1],significantly inhibited
same,change of calcineurin inhibition with increasing concentration,[1],increased to different degree with increasing concentrations
CN1[C@@H]2CC[C@H]1C[C@@H](OC(=O)c1c[nH]c3ccccc13)C2 [tropisetron HCl],effect on calcineurin phosphatase activity,[1],significantly inhibited
same,change of calcineurin inhibition with increasing concentration,[1],increased to different degree with increasing concentrations
same,ABR threshold recovery from 24 h to day 14 compared to placebo,[2],decreased threshold recovery
same,hearing outcomes (ABR thresholds and DPOAE amplitudes) at 14 days after acoustic trauma compared to placebo,[2],worse ABR thresholds and DPOAE amplitudes
same,ABR threshold shift from baseline to day 14 compared to placebo,[2],strong trends towards higher ABR threshold shifts
same,DPOAE amplitude loss from baseline to day 14 compared to placebo,[3],trend towards increased DPOAE amplitude loss
same,recovery of DPOAE amplitudes from 24 h post trauma to day 14 compared to placebo,[3],reduced recovery
same,DPOAE amplitude loss from baseline to day 14 compared to placebo,[3]; listed as tropisetron,trend towards worse DPOAE amplitudes
same,mean loss of outer hair cells compared to placebo,[4],trend towards worse
cyclosporine A,effect on hearing loss in pre-clinical models of noise-induced hearing loss,[5],reduce hearing loss
